The target of the assay is recombinant human SAE enzyme (Homo sapiens (Human), UniProt Q9UBT2). As to the kind of experiment: SAE HTRF enzyme assay. The assay is classed as biochemical. The note with it: for inhibition at 0.111 µM: read-out: Percent Inhibition. Put shortly:
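0.11 nM SAE incubated with 0.5 μM ATP, 0.01 μM Ubc9-GST and 0.125 μM Sumo-Flag in HEPES pH 7.5, MgCl2, GSH, BSA, ±inhibitor, 105 min at 24° C. EDTA stop; Eu-cryptate anti-Flag/XL-APC anti-GST HTRF read after 2 h. Values given as single-concentration % inhibition or IC50.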

Where [1] appears, read: SAE inhibition at compound concentration 0.111 μM.
Setting [2] is: SAE inhibition, class symbols, legend in nM.

Where two headings read alike, the source gives them in different places.

Chain of recombinant human SAE enzyme (Q9UBT2 whole entry): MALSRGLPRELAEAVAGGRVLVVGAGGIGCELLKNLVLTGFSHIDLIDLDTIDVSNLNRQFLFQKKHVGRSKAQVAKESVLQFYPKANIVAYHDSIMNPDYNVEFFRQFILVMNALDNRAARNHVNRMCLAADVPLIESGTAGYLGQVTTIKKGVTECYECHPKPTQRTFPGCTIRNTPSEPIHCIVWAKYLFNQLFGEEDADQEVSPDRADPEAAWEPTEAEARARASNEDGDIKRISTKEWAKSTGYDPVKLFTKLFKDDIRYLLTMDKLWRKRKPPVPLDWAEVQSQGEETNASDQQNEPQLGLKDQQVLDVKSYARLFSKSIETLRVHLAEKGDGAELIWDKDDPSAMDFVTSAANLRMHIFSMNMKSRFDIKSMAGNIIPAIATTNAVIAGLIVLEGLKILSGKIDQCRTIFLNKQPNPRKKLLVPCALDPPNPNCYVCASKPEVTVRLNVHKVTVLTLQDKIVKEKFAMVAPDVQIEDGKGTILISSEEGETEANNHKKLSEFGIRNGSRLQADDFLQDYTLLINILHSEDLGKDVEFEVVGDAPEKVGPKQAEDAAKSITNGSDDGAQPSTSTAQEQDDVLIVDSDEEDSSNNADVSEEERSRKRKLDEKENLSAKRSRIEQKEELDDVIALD
Chain of recombinant human SAE enzyme (Q9UBE0 whole entry partner): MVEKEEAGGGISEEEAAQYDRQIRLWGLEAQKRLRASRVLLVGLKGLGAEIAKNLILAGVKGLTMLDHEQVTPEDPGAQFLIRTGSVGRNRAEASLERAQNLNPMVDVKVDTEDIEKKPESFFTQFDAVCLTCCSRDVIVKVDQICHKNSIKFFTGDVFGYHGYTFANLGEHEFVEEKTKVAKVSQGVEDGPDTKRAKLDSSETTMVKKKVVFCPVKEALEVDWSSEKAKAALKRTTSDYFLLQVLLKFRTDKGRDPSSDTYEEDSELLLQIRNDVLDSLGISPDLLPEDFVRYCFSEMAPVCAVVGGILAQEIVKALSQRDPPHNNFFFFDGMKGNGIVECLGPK

On to `Cc1sc(C(=O)c2cncnc2N[C@@H]2C[C@H](COS(N)(=O)=O)[C@@H](O)C2)cc1[C@@H]1NCCc2ccc(Cl)cc21` [I-263a, [(1R,2S,4R)-4-[[5-[4-[(1R)-7-chloro-1,2,3,4-tetrahydroisoquinolin-1-yl]-5-methyl-thiophene-2-carbonyl]pyrimidin-4-yl]amino]-2-hydroxy-cyclopentyl]methyl sulfamate], for which the inhibition at 0.111 µM (Concentration 0.111 μM) amounted to 101%. The IC50 (class symbols A/B/C) was less than 10 nM.
As to `Cc1sc(C(=O)c2cncnc2N[C@@H]2C[C@H](COS(N)(=O)=O)[C@@H](O)C2)cc1[C@H]1NCCc2ccc(Cl)cc21` [I-263b, [(1R,2S,4R)-4-{[5-({4-[(1S)-7-chloro-1,2,3,4-tetrahydroisoquinolin-1-yl]-5-methyl-2-thienyl}carbonyl)pyrimidin-4-yl]amino}-2-hydroxycyclopentyl]methyl sulfamate], the inhibition at 0.111 µM (Concentration 0.111 μM) was 89%. The IC50 (class symbols A/B/C) was 10 to 100 nM.
As to `Cc1sc(C(=O)c2cncnc2N[C@@H]2C[C@H](COS(N)(=O)=O)[C@@H](O)C2)cc1[C@@H]1c2cc(Cl)ccc2CCN1C` [I-306, [(1R,2S,4R)-4-[[5-[4-[(1R)-7-Chloro-2-methyl-3,4-dihydro-1H-isoquinolin-1-yl]-5-methyl-thiophene-2-carbonyl]pyrimidin-4-yl]amino]-2-hydroxy-cyclopentyl]methyl sulfamate and 2-carbonyl]pyrimidin-4-yl]amino]-2-hydroxy-cyclopentyl]methyl sulfamate], the “Percent Inhibition” value under setting [1] is 98%. For the same compound, the IC50 under setting [2] is less than 10 nM.
As to `Cc1sc(C(=O)c2cncnc2N[C@@H]2C[C@H](COS(N)(=O)=O)[C@@H](OC(=O)CN)C2)cc1[C@@H]1OCCc2ccc(Cl)cc21` [I-330, (1S,2R,4R)-4-{[5-({4-[(1R)-7-chloro-3,4-dihydro-1H-isochromen-1-yl]-5-methyl-2-thienyl}carbonyl)pyrimidin-4-yl]amino}-2-[(sulfamoyloxy)methyl]cyclopentyl aminoacetate], the inhibition at 0.111 µM under setting [1] amounted to 34%. Besides, under setting [2], the IC50 was 100 to 1000 nM.
Turning to `Cc1sc(C(=O)c2cncnc2N[C@@H]2C[C@H](COS(N)(=O)=O)[C@@H](OC(=O)[C@@H](N)C(C)C)C2)cc1[C@@H]1OCCc2ccc(Cl)cc21` [I-338, (1S,2R,4R)-4-{[5-({4-[(1R)-7-Chloro-3,4-dihydro-1H-isochromen-1-yl]-5-methyl-2-thienyl}carbonyl)pyrimidin-4-yl]amino}-2-[(sulfamoyloxy)methyl]cyclopentyl (2S)-2-amino-3-methylbutanoate], under setting [1], the inhibition at 0.111 µM came out at 56%. In addition, the IC50 under setting [2] was in the range of 10 to 100 nM.
The corresponding values for `Cc1sc(C(=O)c2cncnc2N[C@@H]2C[C@H](COS(N)(=O)=O)[C@@H](OC(=O)c3cccc(COP(=O)(O)O)c3)C2)cc1[C@@H]1OCCc2ccc(Cl)cc21` [I-345, (1S,2R,4R)-4-{[5-({4-[(1R)-7-chloro-3,4-dihydro-1H-isochromen-1-yl]-5-methyl-2-thienyl}carbonyl)pyrimidin-4-yl]amino}-2-[(sulfamoyloxy)methyl]cyclopentyl 3-[(phosphonooxy)methyl]benzoate] are 5% and 100 to 1000 nM.
In the case of `NS(=O)(=O)OC[C@H]1C[C@@H](Nc2ncncc2C(=O)c2ncc(Cc3ccccc3)s2)[C@H](O)[C@@H]1O` [I-350, [(1R,2R,3S,4R)-4-({5-[(5-benzyl-1,3-thiazol-2-yl)carbonyl]pyrimidin-4-yl}amino)-2,3-dihydroxycyclopentyl]methyl sulfamate], the inhibition at 0.111 µM under setting [1] was determined as 75%. For the same compound, under setting [2], the 50% inhibitory concentration (IC50) fell in the range of 10 to 100 nM.
As to `Cc1cccc(Cc2csc(C(=O)c3cncnc3N[C@@H]3C[C@H](COS(N)(=O)=O)[C@@H](O)C3)n2)c1` [I-351, {(1R,2S,4R)-2-hydroxy-4-[(5-{[4-(3-methylbenzyl)-1,3-thiazol-2-yl]carbonyl}pyrimidin-4-yl)amino]cyclopentyl}methyl sulfamate], the inhibition at 0.111 µM under setting [1] turned out to be 93%.
In the case of `Cc1sc(C(=O)c2cncnc2N[C@@H]2C[C@H](COS(N)(=O)=O)[C@@H](O)[C@H]2O)nc1Cc1cccc(Cl)c1` [I-352, {(1R,2R,3S,4R)-4-[(5-{[4-(3-chlorobenzyl)-5-methyl-1,3-thiazol-2-yl]carbonyl}pyrimidin-4-yl)amino]-2,3-dihydroxycyclopentyl}methyl sulfamate], the inhibition at 0.111 µM under setting [1] was determined as 100%. Besides, the IC50 under setting [2] is less than 10 nM.
In the case of `Cc1sc(C(=O)c2cncnc2N[C@@H]2C[C@H](COS(N)(=O)=O)[C@@H](O)C2)nc1Cc1cccc(Cl)c1` [I-353, {(1R,2S,4R)-4-[(5-{[4-(3-chlorobenzyl)-5-methyl-1,3-thiazol-2-yl]carbonyl}pyrimidin-4-yl)amino]-2-hydroxycyclopentyl}methyl sulfamate], the inhibition at 0.111 µM under setting [1] was 98%. Also, the IC50 under setting [2] is less than 10 nM.
The corresponding values for `Cc1sc(C(=O)c2cncnc2N[C@@H]2C[C@H](COS(N)(=O)=O)[C@@H](O)[C@H]2O)nc1Cc1cccc(Br)c1` [I-354, {(1R,2R,3S,4R)-4-[(5-{[4-(3-bromobenzyl)-5-methyl-1,3-thiazol-2-yl]carbonyl}pyrimidin-4-yl)amino]-2,3-dihydroxycyclopentyl}methyl sulfamate] are 100% and less than 10 nM.
For `NS(=O)(=O)OC[C@H]1C[C@@H](Nc2ncncc2C(=O)c2cc([C@@H]3OCCc4cc(Cl)ccc43)cs2)C[C@@H]1O` [I-357, [(1R,2S,4R)-4-[[5-[4-[(1R)-6-chloroisochroman-1-yl]thiophene-2-carbonyl]pyrimidin-4-yl]amino]-2-hydroxy-cyclopentyl]methyl sulfamate and [(1R,2S,4R)-4-[[5-[4-[(1S)-6-chloroisochroman-1-ylthiophene-2-carbonyl]pyrimidin-4-yl]amino}-2-hydroxy-cyclopentyl]methyl sulfamate], the “Percent Inhibition” value under setting [1] was found to be 97%. In addition, under setting [2], the IC50 is less than 10 nM.
Regarding `Cc1sc(C(=O)c2cncnc2N[C@@H]2C[C@H](COS(N)(=O)=O)[C@@H](O)C2)cc1-c1nccc2ccc(Cl)cc12` [I-358, [(1R,2S,4R)-4-[[5-[4-(7-chloro-1-isoquinolyl)-5-methyl-thiophene-2-carbonyl]pyrimidin-4-yl]amino]-2-hydroxy-cyclopentyl]methyl sulfamate], the inhibition at 0.111 µM under setting [1] was 96%. Moreover, the IC50 under setting [2] was less than 10 nM.
For `Cc1sc(C(=O)c2cncnc2N[C@@H]2C[C@H](COS(N)(=O)=O)[C@@H](O)C2)cc1C1=NCCc2ccc(Cl)cc21` [I-360, ((1R,2S,4R)-4-{(5-(4-(7-chloro-3,4-dihydroisoquinolin-1-yl)-5-methylthiophene-2-carbonyl)pyrimidin-4-yl)amino)-2-hydroxycyclopentyl)methyl sulfamate], the inhibition at 0.111 µM under setting [1] is 95%. Also, under setting [2], the concentration for half-maximal inhibition (IC50) was less than 10 nM.
For the compound `NS(=O)(=O)OC[C@H]1C[C@@H](Nc2ncncc2C(=O)c2cc([C@@H]3OCCc4ccc(Cl)cc43)c(C(F)F)s2)C[C@@H]1O` [I-361, (1R,2S,4R)-4-[[5-[4-[(R)-7-chloroisochroman-1-yl]-5-(difluoromethyl)thiophene-2-carbonyl]pyrimidin-4-yl]amino]-2-hydroxy-cyclopentyl]methyl sulfamate and (1R,2S,4R)-4-[[5-[4-[(1S)-7-chloroisochroman-1-yl]-5-(difluoromethyl)thiophene-2-carbonyl]pyrimidin-4-yl]amino}-2-hydroxy-cyclopentyl]methyl sulfamate], the “Percent Inhibition” value under setting [1] is recorded as 95%. Besides, under setting [2], the IC50 is less than 10 nM.

For the origin of these results see patent publication US10780090B2, “Heteroaryl compounds useful as inhibitors of SUMO activating enzyme” (Millennium Pharmaceuticals, Inc., priority 2014, dated 2020).
